From article PMC11205114, “A Multiomics Perspective on Plant Cell Wall-Degrading Enzyme Production: Insights from the Unexploited Fungus Trichoderma erinaceum” (Journal of Fungi, 2024)

How the values were obtained:
[1] = biological target: T1, TrCel3B (Trichoderma reesei, UniProt G0RJ07); experiment: pNP release at […] nm; type: biochemical; details: pH 5.5, 50 °C (methods; figure legend 60 °C), 30 min
T1 construct: gene cel3b; gene 2622 bp, 96 kDa
T1 sequence (G0RJ07 19-874): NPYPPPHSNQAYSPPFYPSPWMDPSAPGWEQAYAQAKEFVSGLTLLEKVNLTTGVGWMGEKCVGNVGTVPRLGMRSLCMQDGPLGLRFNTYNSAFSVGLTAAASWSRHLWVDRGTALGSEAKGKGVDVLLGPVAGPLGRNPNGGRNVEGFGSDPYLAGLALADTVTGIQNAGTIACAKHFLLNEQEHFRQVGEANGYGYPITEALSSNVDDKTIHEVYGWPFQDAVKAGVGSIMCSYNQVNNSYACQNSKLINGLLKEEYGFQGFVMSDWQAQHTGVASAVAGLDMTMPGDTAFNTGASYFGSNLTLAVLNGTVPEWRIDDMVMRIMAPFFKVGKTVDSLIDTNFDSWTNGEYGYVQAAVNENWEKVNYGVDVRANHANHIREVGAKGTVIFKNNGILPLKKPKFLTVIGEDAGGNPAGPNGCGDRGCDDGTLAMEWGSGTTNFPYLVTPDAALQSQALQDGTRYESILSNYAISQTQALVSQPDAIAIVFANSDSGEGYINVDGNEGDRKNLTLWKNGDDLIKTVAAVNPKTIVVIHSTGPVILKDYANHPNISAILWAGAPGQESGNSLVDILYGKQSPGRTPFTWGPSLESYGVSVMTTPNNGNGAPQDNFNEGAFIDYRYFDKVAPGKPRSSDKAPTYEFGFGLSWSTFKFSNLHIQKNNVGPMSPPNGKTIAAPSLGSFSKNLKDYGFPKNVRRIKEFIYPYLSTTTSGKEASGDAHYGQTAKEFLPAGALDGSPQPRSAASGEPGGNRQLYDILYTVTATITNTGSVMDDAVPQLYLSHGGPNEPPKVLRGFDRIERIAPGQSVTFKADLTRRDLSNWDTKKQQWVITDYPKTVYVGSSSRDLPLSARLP

[2] = biological target: T1, TrCel3B; experiment: pNPG hydrolysis, pNP release at […] nm; type: biochemical; details: pNPG substrate (5 mM stock), pH 4.5, 60 °C

Row | SMILES | pNP release at 405 nm [1] | % inhibition [2]
1 | O=[N+]([O-])c1ccc(O[C@@H]2O[C@H](CO)[C@@H](O)[C@H](O)[C@H]2O)cc1 [4-nitrophenyl β-D-glucopyranoside] | TeBgl3C and TrCel3B displayed the highest specific activities on pNPG | 
2 | OC[C@H]1OC(O)[C@H](O)[C@@H](O)[C@@H]1O (some centres unmarked) [glucose] |  | TeBgl3C showed a slightly higher tolerance to glucose than TrCel3B
